Measurements as given in the NIST ThermoML archive (doi:10.1021/acs.jced.7b00347).

Assay: mn = molality of the nth substance listed, in mol/kg
Conditions: for electrical conductivity: 100 kPa, Liquid, Alternating current cell with electrodes; for surface tension liquid-gas: Ring tensiometer

CCCCCCCCC[NH+](CCO)CC(C)O.[Cl-] (stereo not drawn) + O
Conditions | electrical conductivity [S/m] | surface tension liquid-gas [mN/m]
298.15 K, m1 = 0.0008607 | 0.00345 | –
298.15 K, m1 = 0.0008869 | 0.00352 | –
303.15 K, m1 = 1.77e-05 | 0.00064 | –
303.15 K, m1 = 1.774e-05 | – | 51.35
303.15 K, m1 = 3.548e-05 | – | 46.22
303.15 K, m1 = 3.66e-05 | 0.000736 | –
303.15 K, m1 = 5.54e-05 | 0.000832 | –
303.15 K, m1 = 7.43e-05 | 0.000928 | –
303.15 K, m1 = 8.87e-05 | – | 38.79
303.15 K, m1 = 9.31e-05 | 0.00102 | –
303.15 K, m1 = 0.000112 | 0.00112 | –
303.15 K, m1 = 0.0001308 | 0.00122 | –
303.15 K, m1 = 0.0001497 | 0.00131 | –
303.15 K, m1 = 0.0001685 | 0.00141 | –
303.15 K, m1 = 0.0001774 | – | 33.47
303.15 K, m1 = 0.0001874 | 0.00151 | –
303.15 K, m1 = 0.0002062 | 0.0016 | –
303.15 K, m1 = 0.0002251 | 0.0017 | –
303.15 K, m1 = 0.0002439 | 0.00179 | –
303.15 K, m1 = 0.0002628 | 0.00189 | –
303.15 K, m1 = 0.0002661 | – | 30.23
303.15 K, m1 = 0.0002816 | 0.00199 | –
303.15 K, m1 = 0.0003004 | 0.00208 | –
303.15 K, m1 = 0.0003193 | 0.00218 | –
303.15 K, m1 = 0.0003229 | – | 29.48
303.15 K, m1 = 0.0003451 | 0.00227 | –
303.15 K, m1 = 0.0003548 | – | 29.41
303.15 K, m1 = 0.0003709 | 0.00236 | –
303.15 K, m1 = 0.0003967 | 0.00245 | –
303.15 K, m1 = 0.0004225 | 0.00254 | –
303.15 K, m1 = 0.0004483 | 0.00263 | –
303.15 K, m1 = 0.0004741 | 0.00272 | –
303.15 K, m1 = 0.0004999 | 0.00281 | –
303.15 K, m1 = 0.0005257 | 0.00291 | –
303.15 K, m1 = 0.0005515 | 0.003 | –
303.15 K, m1 = 0.0005773 | 0.00309 | –
303.15 K, m1 = 0.0006031 | 0.00318 | –
303.15 K, m1 = 0.0006289 | 0.00327 | –
303.15 K, m1 = 0.0006547 | 0.00336 | –
303.15 K, m1 = 0.0006805 | 0.00345 | –
303.15 K, m1 = 0.0007063 | 0.00354 | –
303.15 K, m1 = 0.0007321 | 0.00363 | –
303.15 K, m1 = 0.0007579 | 0.00372 | –
303.15 K, m1 = 0.0007837 | 0.00381 | –
303.15 K, m1 = 0.0008095 | 0.00391 | –
303.15 K, m1 = 0.0008353 | 0.004 | –
303.15 K, m1 = 0.0008611 | 0.00409 | –
303.15 K, m1 = 0.0008869 | 0.00418 | –
303.15 K, m1 = 0.000887 | – | 28.48
303.15 K, m1 = 0.001774 | – | 28.01
303.15 K, m1 = 0.002661 | – | 27.82
303.15 K, m1 = 0.003547 | – | 27.65
308.15 K, m1 = 8.869e-06 | – | 52.23
308.15 K, m1 = 1.77e-05 | 0.00074 | –
308.15 K, m1 = 1.774e-05 | – | 47.19
308.15 K, m1 = 3.42e-05 | 0.000841 | –
308.15 K, m1 = 3.548e-05 | – | 42.29
308.15 K, m1 = 5.07e-05 | 0.000941 | –
308.15 K, m1 = 6.72e-05 | 0.00104 | –
308.15 K, m1 = 8.36e-05 | 0.00114 | –
308.15 K, m1 = 8.87e-05 | – | 35.88
308.15 K, m1 = 0.0001001 | 0.00124 | –
308.15 K, m1 = 0.0001166 | 0.00134 | –
308.15 K, m1 = 0.000133 | 0.00144 | –
308.15 K, m1 = 0.0001495 | 0.00154 | –
308.15 K, m1 = 0.000166 | 0.00165 | –
308.15 K, m1 = 0.0001774 | – | 30.89
308.15 K, m1 = 0.0001825 | 0.00175 | –
308.15 K, m1 = 0.0001989 | 0.00185 | –
308.15 K, m1 = 0.0002154 | 0.00195 | –
308.15 K, m1 = 0.0002319 | 0.00205 | –
308.15 K, m1 = 0.0002483 | 0.00215 | 28.73
308.15 K, m1 = 0.0002732 | – | 28.57
308.15 K, m1 = 0.0002803 | 0.00229 | –
308.15 K, m1 = 0.0003122 | 0.00243 | –
308.15 K, m1 = 0.0003441 | 0.00257 | –
308.15 K, m1 = 0.0003548 | – | 28.44
308.15 K, m1 = 0.0003761 | 0.00271 | –
308.15 K, m1 = 0.000408 | 0.00285 | –
308.15 K, m1 = 0.0004399 | 0.00299 | –
308.15 K, m1 = 0.0004718 | 0.00313 | –
308.15 K, m1 = 0.0005038 | 0.00327 | –
308.15 K, m1 = 0.0005357 | 0.00341 | –
308.15 K, m1 = 0.0005676 | 0.00356 | –
308.15 K, m1 = 0.0005996 | 0.00369 | –
308.15 K, m1 = 0.0006315 | 0.00384 | –
308.15 K, m1 = 0.0006634 | 0.00398 | –
308.15 K, m1 = 0.0006954 | 0.00412 | –
308.15 K, m1 = 0.0007273 | 0.00426 | –
308.15 K, m1 = 0.0007592 | 0.0044 | –
308.15 K, m1 = 0.0007911 | 0.00454 | –
308.15 K, m1 = 0.0008231 | 0.00468 | –
308.15 K, m1 = 0.000855 | 0.00482 | –
308.15 K, m1 = 0.0008869 | 0.00496 | –
308.15 K, m1 = 0.000887 | – | 27.73
308.15 K, m1 = 0.001774 | – | 27.41
308.15 K, m1 = 0.002661 | – | 27.23
